What was measured:
[1] = tested on: HMEC; assay: Cytotoxicity of compound was tested against HMEC cell line (human mamm epithelial cells) after incubation for 72 hour; type: functional, cell-based
[2] = tested on: MCF7; assay: Cytotoxicity of compound was tested against MCF-7 cell line (breast carcinoma) after incubation for 24 hour; type: functional, cell-based; conditions: Homo sapiens, MCF7, 24 h
[3] = tested on: CHO; assay: Cytotoxicity of compound was tested against CHO cell line (Chinese hamster ovary) after incubation for 24 hour; type: functional, cell-based; conditions: Cricetulus griseus
[4] = tested on: CAPAN-1; assay: Cytotoxicity of compound was tested against Capan-1 cell line (pancreatic carcinoma) after incubation for 24 hour; type: functional, cell-based; conditions: Homo sapiens, CAPAN-1, 24 h
[5] = tested on: HL-60; assay: Cytotoxicity of compound was tested against HL-60 cell line (promyelocytic leukemia) after incubation for 24 hour; type: functional, cell-based; conditions: Homo sapiens, HL-60, 24 h
[6] = tested on: CHO; assay: Cytotoxicity of compound was tested against CHO cell line (Chinese hamster ovary) after incubation for 72 hour; type: functional, cell-based; conditions: Cricetulus griseus
[7] = Lethal dose of compound required when administered BALB C mice; type: toxicity; conditions: mouse, in vivo
[8] = tested on: MOLT-4; assay: Cytotoxicity of compound was tested against Molt-4 cell line (T-cell leukemia) after incubation for 24 hour; type: functional, cell-based; conditions: Homo sapiens, MOLT-4, 24 h
[9] = tested on: SK-MEL-28; assay: Cytotoxicity of compound was tested against SK-Mel-28 cell line (melanoma) after incubation for 72 hour; type: functional, cell-based; conditions: Homo sapiens, SK-MEL-28, 72 h
[10] = tested on: NHDF; assay: Cytotoxicity of compound was tested against NHDF cell line (norm human dermal fibroblast) after incubation for 72 hour; type: functional, cell-based
[11] = tested on: HT-29; assay: Cytotoxicity of compound was tested against HT-29 cell line (colon carcinoma) after incubation for 24 hour; type: functional, cell-based; conditions: Homo sapiens, HT-29, 24 h
[12] = tested on: HMEC; assay: Cytotoxicity of compound was tested against HMEC cell line (human mamm epithelial cells) after incubation for 24 hour; type: functional, cell-based
[13] = tested on: CAPAN-1; assay: Cytotoxicity of compound was tested against […] cell line (pancreatic carcinoma) after incubation for 72 hour; type: functional, cell-based; conditions: Homo sapiens, CAPAN-1, 72 h
[14] = tested on: P388; assay: Cytotoxicity of compound was tested against P-388 cell line (mouse leukemia) after incubation for 24 hour; type: functional, cell-based; conditions: P388, 24 h
[15] = tested on: NHDF; assay: Cytotoxicity of compound was tested against NHDF cell line (norm human dermal fibroblast) after incubation for 24 hour; type: functional, cell-based
[16] = tested on: P388; assay: Cytotoxicity of compound was tested against P-388 cell line (mouse leukemia) after incubation for 72 hour; type: functional, cell-based; conditions: P388, 72 h
[17] = tested on: HT-29; assay: Cytotoxicity of compound was tested against HT-29 cell line (colon carcinoma) after incubation for 72 hour; type: functional, cell-based; conditions: Homo sapiens, HT-29, 72 h
[18] = tested on: HL-60; assay: Cytotoxicity of compound was tested against HL-60 cell line (promyelocytic leukemia) after incubation for 72 hour; type: functional, cell-based; conditions: Homo sapiens, HL-60, 72 h
[19] = tested on: OVCAR-3; assay: Cytotoxicity of compound was tested against Ovcar-3 cell line (ovarian carcinoma) after incubation for 24 hour; type: functional, cell-based; conditions: Homo sapiens, OVCAR-3, 24 h
[20] = tested on: MCF7; assay: Cytotoxicity of compound was tested against MCF-7 cell line (breast carcinoma) after incubation for 72 hour; type: functional, cell-based; conditions: Homo sapiens, MCF7, 72 h
[21] = tested on: UCLA P-3; assay: Cytotoxicity of compound was tested against UCLA P-3 cell line (lung carcinoma) after incubation for 24 hour; type: functional, cell-based; conditions: Homo sapiens, UCLA P-3, 24 h
[22] = tested on: OVCAR-3; assay: Cytotoxicity of compound was tested against Ovcar-3 cell line (ovarian carcinoma) after incubation for 72 hour; type: functional, cell-based; conditions: Homo sapiens, OVCAR-3, 72 h
[23] = tested on: SK-MEL-28; assay: Cytotoxicity of compound was tested against SK-Mel-28 cell line (melanoma) after incubation for 24 hour; type: functional, cell-based; conditions: Homo sapiens, SK-MEL-28, 24 h

Q: With `COc1cccc2c1C(=O)c1c(O)c3c(c(O)c1C2=O)C[C@@](O)(C(C)=O)C[C@@H]3O[C@H]1C[C@H](N)[C@H](O)[C@H](C)O1.Cl` [DAUNORUBICIN HYDROCHLORIDE] as the molecule, how does the IC50 [1] read?
A: Its IC50 is less than 98 nM.

Q: What about the IC50 [2] of the same molecule?
A: Its IC50 is 780 nM.

Q: What about the IC50 [3] of the same molecule?
A: Its IC50 is 390 nM.

Q: What about the IC50 [4] of the same molecule?
A: The IC50 was 390 nM.

Q: What about the IC50 [5] of the same molecule?
A: Its IC50 is less than 98 nM.

Q: And the IC50 [6]?
A: Its IC50 is 294 nM.

Q: What about the LD50 [7] of the same molecule?
A: Its LD50 is 15 mg/kg.

Q: And the IC50 [8]?
A: The IC50 was 1 nM.

Q: And the IC50 [9]?
A: The IC50 was 1410 nM.

Q: And the IC50 [10]?
A: Its IC50 is 404 nM.

Q: What about the IC50 [11] of the same molecule?
A: Its IC50 is 780 nM.

Q: And the IC50 [12]?
A: Its IC50 is 390 nM.

Q: What about the IC50 [13] of the same molecule?
A: The IC50 was 3100 nM.

Q: And the IC50 [14]?
A: The IC50 was 390 nM.

Q: What about the IC50 [15] of the same molecule?
A: The IC50 was 190 nM.

Q: What about the IC50 [16] of the same molecule?
A: The IC50 was less than 98 nM.

Q: And the IC50 [17]?
A: Its IC50 is 357 nM.

Q: What about the IC50 [18] of the same molecule?
A: Its IC50 is 98 nM.

Q: And the IC50 [19]?
A: Its IC50 is 390 nM.

Q: What about the IC50 [20] of the same molecule?
A: Its IC50 is 13500 nM.

Q: What about the IC50 [21] of the same molecule?
A: Its IC50 is 730 nM.

Q: What about the IC50 [22] of the same molecule?
A: The IC50 was 287 nM.

Q: What about the IC50 [23] of the same molecule?
A: The IC50 was 1600 nM.
